Source: ChEMBL document CHEMBL1268964, “CWJ-081, a novel 3-arylisoquinoline derivative, induces apoptosis in human leukemia HL-60 cells partially involves reactive oxygen species through c-Jun NH2-terminal kinase pathway” (Bioorg Med Chem Lett, 2010)
Calls of active or inactive are those of the source.

What was measured:
HL-60 [1] = test: Induction of apoptosis in human HL60 cells in presence of 10 uM SP600125 JNK inhibitor; assay type: functional, cell-based
HL-60 [2] = test: Induction of apoptosis in human HL60 cells assessed as Bax protein expression at 10 uM after 12 hrs by Western blot analysis; assay type: functional, cell-based
[3] = Cytotoxicity against human L-132 cells by MTT assay; assay type: cell-based; conditions: L132
K562 [4] = test: Cytotoxicity against human K562 cells by MTT assay; assay type: functional, cell-based
K562 [5] = test: Induction of apoptosis in human K562 cells assessed as intercucleosomal DNA fragmentation at 10 uM by […] staining by flow cytometry; assay type: functional, cell-based; conditions: TDE = time-dependent effect
HL-60 [6] = test: Induction of apoptosis in human HL60 cells assessed as cytochrome c release from mitochondria at 10 uM after 12 hrs by Western blot analysis; assay type: functional, cell-based
[7] = Cytotoxicity against human IOSE-80PC cells by MTT assay; assay type: cell-based
HL-60 [8] = test: Induction of apoptosis in human HL60 cells assessed as increase in JNK phosphorylation level at 12 hrs; assay type: functional, cell-based
U-937 [9] = test: Induction of apoptosis in human U937 cells assessed as early apoptotic cells at 10 uM by Annexin V staining; assay type: functional, cell-based; conditions: TDE = time-dependent effect
HL-60 [10] = test: Induction of apoptosis in human HL60 cells assessed as increase in JNK phosphorylation level at 6 hrs; assay type: functional, cell-based
HL-60 [11] = test: Induction of apoptosis in human HL60 cells assessed as PARP-1 at 10 uM after 36 hrs by Western blot analysis; assay type: functional, cell-based
HL-60 [12] = test: Induction of apoptosis in human HL60 cells assessed as intercucleosomal DNA fragmentation at 10 uM by […] staining by flow cytometry; assay type: functional, cell-based; conditions: TDE = time-dependent effect
HL-60 [13] = test: Induction of apoptosis in human HL60 cells assessed as Bcl-2 family expression at 10 uM by Western blot analysis; assay type: functional, cell-based; conditions: TDE = time-dependent effect
HeLa = test: Cytotoxicity against human HeLa cells by MTT assay; assay type: functional, cell-based
HL-60 [14] = test: Induction of apoptosis in human HL60 cells assessed as Bcl-2 protein expression at 10 uM after 12 hrs by Western blot analysis; assay type: functional, cell-based
HL-60 [15] = test: Induction of apoptosis in human HL60 cells assessed as procaspase 3 cleavage at 10 uM after 36 hrs by Western blot analysis; assay type: functional, cell-based
Ca-Ski = test: Cytotoxicity against human CaSki cells by MTT assay; assay type: functional, cell-based
HL-60 [16] = test: Induction of apoptosis in human HL60 cells assessed as loss of mitochondrial membrane potential at 50 uM after 24 hrs by DiOC6 staining; assay type: functional, cell-based
HL-60 [17] = test: Induction of apoptosis in human HL60 cells assessed as procaspase 8 cleavage at 10 uM after 36 hrs by Western blot analysis; assay type: functional, cell-based
HL-60 [18] = test: Induction of apoptosis in human HL60 cells assessed as increase in ROS production in presence of 10 mM NAC; assay type: functional, cell-based
HL-60 [19] = test: Induction of apoptosis in human HL60 cells assessed as increase in ROS production; assay type: functional, cell-based; conditions: TDE = time-dependent effect
HL-60 [20] = test: Cytotoxicity against human HL60 cells by MTT assay; assay type: functional, cell-based
HL-60 [21] = test: Induction of apoptosis in human HL60 cells assessed as cytochrome c release from mitochondria at 10 uM after 24 hrs by Western blot analysis; assay type: functional, cell-based
U-937 [22] = test: Induction of apoptosis in human U937 cells assessed as intercucleosomal DNA fragmentation at 10 uM by […] staining by flow cytometry; assay type: functional, cell-based; conditions: TDE = time-dependent effect
HL-60 [23] = test: Induction of apoptosis in human HL60 cells assessed as early apoptotic cells at 10 uM by Annexin V staining; assay type: functional, cell-based; conditions: TDE = time-dependent effect
HL-60 [24] = test: Induction of apoptosis in NAC pretreated human HL60 cells assessed as increase in JNK phosphorylation level; assay type: functional, cell-based
U-937 [25] = test: Cytotoxicity against human U937 cells by MTT assay; assay type: functional, cell-based
HL-60 [26] = test: Induction of apoptosis in human HL60 cells assessed as procaspase 9 cleavage at 10 uM after 36 hrs by Western blot analysis; assay type: functional, cell-based
[27] = Cytotoxicity against human Chang cells by MTT assay; assay type: cell-based
K562 [28] = test: Induction of apoptosis in human K562 cells assessed as early apoptotic cells at 10 uM by Annexin V staining; assay type: functional, cell-based; conditions: TDE = time-dependent effect
HL-60 [29] = test: Induction of apoptosis in NAC pretreated human HL60 cells assessed as increase in ROS production; assay type: functional, cell-based

CCc1cc2c(cc1-c1cc3ccc(OC)c(OC)c3c(=O)n1C)OCO2
active: Activity (HL-60 [1]) | Activity (HL-60 [2]) | Activity (K562 [5]) tde | Activity (HL-60 [6]) | Activity (U-937 [9]) tde | Activity (HL-60 [10]) | Activity (HL-60 [11]) | Activity (HL-60 [12]) tde | Activity (HL-60 [13]) tde | Activity (HL-60 [14]) | Activity (HL-60 [15]) | Activity (HL-60 [16]) | Activity (HL-60 [17]) | Activity (HL-60 [19]) tde | Activity (HL-60 [21]) | Activity (U-937 [22]) tde | Activity (HL-60 [23]) tde | Activity (HL-60 [26]) | Activity (K562 [28]) tde
59.4 µM: IC50 [3]
42.2 µM: IC50 (HeLa)
47.3 µM: IC50 (Ca-Ski)
68 µM: IC50 [7]
5.62 µM: IC50 (HL-60 [20])
39.9 µM: IC50 [27]
33.2 µM: IC50 (U-937 [25])
inactive: Activity (HL-60 [8]) | Activity (HL-60 [18]) | Activity (HL-60 [24]) | Activity (HL-60 [29])
38.1 µM: IC50 (K562 [4])
